Results from US10919935B2, “Antimicrobial peptide derived from myxinidin peptide and uses thereof” (INDUSTRY-ACADEMIC COOPERATION FOUNDATION, CHOSUN UNIVERSITY, priority 2015, dated 2021).
Residues, ends and D or L forms follow the SMILES beside them.

Tests used:
S. typhimurium 8009 = experiment: MIC at salt concentration (Example 3); type: cell-based, Salmonella typhimurium
Protocol: (§1) To compare the antimicrobial activity of the peptide produced by the method of Example 1, the inventors of the present invention measured the minimum growth inhibitory concentration (MIC), which is minimum concentration of the peptide showing no dissociation of bacterial cells, at salt concentration.
(§2) Specifically, the bacterial strain described in the above Table 2 was cultured in each medium to a mid-log phase. Then, after dilution to bacterial cell concentration of 2×10^5 cells/100 μl, the cells were inoculated to a microtiter plate (NUNC, USA). Thereafter, myxinidin 1, myxinidin 2, or myxinidin 3 peptides which have been synthesized in Example 1 above was diluted, 1/2 times for each, with BSA+150 mM sodium chloride (NaCl) solution, physiological saline (PBS) solution, or 10 mM sodium phosphate (SP) solution in a 96-well plate. After adding the cells to a plate, the cells were cultured for 12 hours at 37° C. By using a microtiter plate reader (Merck Elisa reader, Germany), the absorbance was measured at a wavelength of 600 nm to determine the MIC value of each bacterial strain. As a control group, myxinidin as a mother peptide was subjected to the same processes as above and the MIC value of each bacterial strain was obtained.

S. typhimurium 8013 = experiment: MIC at salt concentration (Example 3); type: cell-based, Salmonella typhimurium
Protocol: as §1, §2

S. typhimurium = experiment: MIC at salt concentration (Example 3); type: cell-based, Salmonella typhimurium
Protocol: as §1, §2

S. aureus 3114 = experiment: MIC at salt concentration (Example 3); type: cell-based, Staphylococcus aureus
Protocol: as §1, §2

S. aureus 3709 = experiment: MIC at salt concentration (Example 3); type: cell-based, Staphylococcus aureus
Protocol: as §1, §2

S. aureus [1] = experiment: MIC at salt concentration (Example 3); type: cell-based, Staphylococcus aureus
Protocol: as §1, §2

L. monocytogenes [2] = experiment: MIC at salt concentration (Example 3); type: cell-based, Listeria monocytogenes
Protocol: as §1, §2

Escherichia coli 1229 = experiment: MIC at salt concentration (Example 3); type: cell-based
Protocol: as §1, §2

Escherichia coli 1238 = experiment: MIC at salt concentration (Example 3); type: cell-based
Protocol: as §1, §2

Escherichia coli = experiment: MIC at salt concentration (Example 3); type: cell-based
Protocol: as §1, §2

P. aeruginosa 3592 = experiment: MIC at salt concentration (Example 3); type: cell-based, Pseudomonas aeruginosa
Protocol: as §1, §2

P. aeruginosa 5018 = experiment: MIC at salt concentration (Example 3); type: cell-based, Pseudomonas aeruginosa
Protocol: as §1, §2

P. aeruginosa = experiment: MIC at salt concentration (Example 3); type: cell-based, Pseudomonas aeruginosa
Protocol: as §1, §2

S. aureus [3] = experiment: Anti-biofilm activity (crystal violet); type: cell-based, Staphylococcus aureus
Protocol: (§3) To compare the antimicrobial activity of the peptide produced by the method of Example 1, the inventors of the present invention measured the biofilm inhibitory concentration value of the peptide showing no dissociation of bacterial cells.
(§4) Specifically, the Gram-negative bacteria and Gram-positive bacteria among the bacterial strains described in the above Table 2 were cultured in each medium to a mid-log phase. Then, after dilution to bacterial cell concentration of 5×10^5 cells/100 μl, the cells were inoculated to a microtiter plate (NUNC, USA). Thereafter, myxinidin 1, myxinidin 2, or myxinidin 3 peptides which have been synthesized in Example 1 above was diluted, 1/10 times for each, with physiological saline (PBS) solution in a 96-well plate. After adding the cells to a plate, the cells were cultured for 12 hours at 37° C. After removing the supernatant, the cells were fixed with 100% methanol and reacted for 2 hours with Crystal violet staining solution followed by rinsing for 3 times. Then, after dissolving in 95% ethanol, the absorbance was measured at a wavelength of 595 nm by using a microtiter plate reader (Merck Elisa reader, Germany) to determine the biofilm inhibitory concentration value of each bacterial strain. As a control group, myxinidin as a mother peptide was subjected to the same processes as above and the biofilm inhibitory concentration value of each bacterial strain was obtained.

L. monocytogenes [4] = experiment: Anti-biofilm activity (crystal violet); type: cell-based, Listeria monocytogenes
Protocol: as §3, §4

in vitro = type: cell-based; conditions: human, NHK cells (normal human keratinocytes)
Protocol: To determine the cytotoxicity of the peptide produced by the method of Example 1 in normal cell line, toxicity was measured by using NHK cells (Normal Human Keratinocyte cells).
Specifically, NHK cells which have been cultured in Epilife medium with 60 μM calcium (Gibco, USA) containing 10% HKGS (Human Keratinocyte Growth Supplement) (Gibco, USA) were aliquoted in a 96-well plate to have 1×10^4 cells per well. After culturing them for 24 hours, the cells were subjected to a treatment with myxinidin, myxinidin 1, myxinidin 2, or myxinidin 3 peptide, each at concentration of 3.125, 6.25, 12.5, or 25.0 μM/well, followed by reaction for 24 hours in a 5% CO2 incubator. After the culture, a reaction solution containing 5 mg/ml MTT (Thiazolyl Blue Tetrazolium Bromide) dissolved in physiological saline (PBS) was added in an amount of 20 μl to each well and allowed to react for 4 hours. After that, the supernatant was removed, and, by dissolving MTT crystals that are formed by adding 200 μl of DMSO, the absorbance at 560 nm was measured to determine the cell survival ability.

[5] = NaCl (BSA+150 mM sodium chloride)

SMILES: CC[C@H](C)[C@H](NC(=O)CN)C(=O)N[C@@H](Cc1c[nH]cn1)C(=O)N[C@@H](Cc1c[nH]cn1)C(=O)N[C@H](C(=O)N[C@@H](CC(C)C)C(=O)N[C@@H](CCCCN)C(=O)N[C@@H](Cc1ccc(O)cc1)C(=O)NCC(=O)N[C@@H](CCCCN)C(=O)N1CCC[C@H]1C(=O)N[C@@H](CO)C(N)=O)[C@@H](C)CC [Myxinidin 1, GIHHILKYGKPS-NH2] (H-GIHHILKYGKPS-NH2; N-terminus assumed)
- Antimicrobial activity (MIC) according to salt concentration (S. typhimurium 8009; [5]): >32
- Antimicrobial activity (MIC) according to salt concentration (S. typhimurium 8009; PBS): >32
- Antimicrobial activity (MIC) according to salt concentration (S. typhimurium 8009; SP (10 mM sodium phosphate)): >32
- Antimicrobial activity (MIC) according to salt concentration (S. typhimurium 8013; [5]): >32
- Antimicrobial activity (MIC) according to salt concentration (S. typhimurium 8013; PBS): >32
- Antimicrobial activity (MIC) according to salt concentration (S. typhimurium 8013; SP (10 mM sodium phosphate)): >32
- Antimicrobial activity (MIC) according to salt concentration (S. typhimurium; [5]): >32
- Antimicrobial activity (MIC) according to salt concentration (S. typhimurium; PBS): >32
- Antimicrobial activity (MIC) according to salt concentration (S. typhimurium; SP (10 mM sodium phosphate)): >32
- Antimicrobial activity (MIC) according to salt concentration (S. aureus 3114; [5]): >32
- Antimicrobial activity (MIC) according to salt concentration (S. aureus 3114; PBS): >32
- Antimicrobial activity (MIC) according to salt concentration (S. aureus 3114; SP (10 mM sodium phosphate)): >32
- Antimicrobial activity (MIC) according to salt concentration (S. aureus 3709; [5]): >32
- Antimicrobial activity (MIC) according to salt concentration (S. aureus 3709; PBS): >32
- Antimicrobial activity (MIC) according to salt concentration (S. aureus 3709; SP (10 mM sodium phosphate)): >32
- Antimicrobial activity (MIC) according to salt concentration (S. aureus [1]; [5]): >32
- Antimicrobial activity (MIC) according to salt concentration (S. aureus [1]; PBS): >32
- Antimicrobial activity (MIC) according to salt concentration (S. aureus [1]; SP (10 mM sodium phosphate)): >32
- Antimicrobial activity (MIC) according to salt concentration (L. monocytogenes [2]; [5]): >32
- Antimicrobial activity (MIC) according to salt concentration (L. monocytogenes [2]; PBS): >32
- Antimicrobial activity (MIC) according to salt concentration (L. monocytogenes [2]; SP (10 mM sodium phosphate)): >32
- Antimicrobial activity (MIC) according to salt concentration (Escherichia coli 1229; [5]): >32
- Antimicrobial activity (MIC) according to salt concentration (Escherichia coli 1229; PBS): >32
- Antimicrobial activity (MIC) according to salt concentration (Escherichia coli 1229; SP (10 mM sodium phosphate)): >32
- Antimicrobial activity (MIC) according to salt concentration (Escherichia coli 1238; [5]): >32
- Antimicrobial activity (MIC) according to salt concentration (Escherichia coli 1238; PBS): >32
- Antimicrobial activity (MIC) according to salt concentration (Escherichia coli 1238; SP (10 mM sodium phosphate)): >32
- Antimicrobial activity (MIC) according to salt concentration (Escherichia coli; [5]): >32
- Antimicrobial activity (MIC) according to salt concentration (Escherichia coli; PBS): >32
- Antimicrobial activity (MIC) according to salt concentration (Escherichia coli; SP (10 mM sodium phosphate)): >32
- Antimicrobial activity (MIC) according to salt concentration (P. aeruginosa 3592; [5]): >32
- Antimicrobial activity (MIC) according to salt concentration (P. aeruginosa 3592; PBS): >32
- Antimicrobial activity (MIC) according to salt concentration (P. aeruginosa 3592; SP (10 mM sodium phosphate)): >32
- Antimicrobial activity (MIC) according to salt concentration (P. aeruginosa 5018; [5]): >32
- Antimicrobial activity (MIC) according to salt concentration (P. aeruginosa 5018; PBS): >32
- Antimicrobial activity (MIC) according to salt concentration (P. aeruginosa 5018; SP (10 mM sodium phosphate)): >32
- Antimicrobial activity (MIC) according to salt concentration (P. aeruginosa; [5]): >32
- Antimicrobial activity (MIC) according to salt concentration (P. aeruginosa; PBS): >32
- Antimicrobial activity (MIC) according to salt concentration (P. aeruginosa; SP (10 mM sodium phosphate)): >32
- Biofilm forming ability (S. aureus [3]; peptide 0.25 μM): 98%
- Biofilm forming ability (S. aureus [3]; peptide 0.5 μM): 88%
- Biofilm forming ability (S. aureus [3]; peptide 1 μM): 87%
- Biofilm forming ability (S. aureus [3]; peptide 2 μM): 86%
- Biofilm forming ability (S. aureus [3]; peptide 4 μM): 83%
- Biofilm forming ability (S. aureus [3]; peptide 8 μM): 83%
- Biofilm forming ability (S. aureus [3]; peptide 16 μM): 79%
- Biofilm forming ability (S. aureus [3]; peptide 32 μM): 75%
- Biofilm forming ability (L. monocytogenes [4]; peptide 0.25 μM): 100%
- Biofilm forming ability (L. monocytogenes [4]; peptide 0.5 μM): 100%
- Biofilm forming ability (L. monocytogenes [4]; peptide 1 μM): 100%
- Biofilm forming ability (L. monocytogenes [4]; peptide 2 μM): 100%
- Biofilm forming ability (L. monocytogenes [4]; peptide 4 μM): 99%
- Biofilm forming ability (L. monocytogenes [4]; peptide 8 μM): 98%
- Biofilm forming ability (L. monocytogenes [4]; peptide 16 μM): 97%
- Biofilm forming ability (L. monocytogenes [4]; peptide 32 μM): 93%
- viability at 24 h, 3.125 µM (in vitro): 100%
- viability at 24 h, 6.25 µM (in vitro): 96%
- viability at 24 h, 12.5 µM (in vitro): 96%
- viability at 24 h, 25 µM (in vitro): 88%
